pEC50: −log10 of the molar value.
How the values were obtained:
[1] = tested on: activated primary fibroblasts WI38, IMR90 and HDF; assay: sVEGF ELISA in activated primary fibroblasts; assay type: cell-based, human; settings: fibroblasts activated with anti-CD3/anti-CD28 stimulated PBMCs, FGF-2 or TGFβ
Description: FIG. 5: USP7 inhibition decreased secreted VEGF levels in activated fibroblasts. The USP7-mediated decrease in VEGF secretion observed in the co-cultures can be solely attributed to modulation of secreted VEGF in primary fibroblasts.
(FIG. 4). […] During the wound healing process or following stimulation by acute or chronic inflammatory signals, fibroblasts acquire an activated phenotype (referred to as myofibroblasts). Once activated, myofibroblasts proliferate and migrate, show contractile activity, exert physical forces to modify tissue architecture and become transcriptionally active leading to the secretion of cytokines, chemokines and extra-cellular matrix (ECM) components. In the tumour microenvironment, the majority of residual fibroblasts become activated and are known as cancer associated fibroblasts (CAF). In order to generate a myofibroblast phenotype, WI38, IMR90 and HDF were co-cultured with anti-CD3/anti-CD28 stimulated PBMCs or were stimulated by FGF-2 or TGFβ. […] The USP7 inhibitor-mediated decrease in VEGF secretion was only observed in primary fibroblasts; immortalized lung fibroblasts (WI38-VA13) were insensitive to USP7 inhibitor treatment, probably due to the destabilized p53 in the SV-40 immortalized fibroblasts (FIG. 7).
(§1) For the co-culture experiments, 5×10^4 cancer cells were seeded in transwell in 0.5 mL complete growth medium and placed on the top of 0.1×10^6 fibroblasts plated in 12-well in 1 mL low serum growth media overnight. Following day cancer cells were washed with PBS and media replaced with reduced (1%) serum growth media. 0.5×10^6 PBMC were plated on top of fibroblasts, incubated for 45 min and activated with CD3 (1 μg/ml final concentration) and CD28 (5 μg/ml final concentration). […] Monoculture experiments, 0.1×10^6 cells were seeded in 12-well in 1 mL of complete growth media (cancer cells) or low serum growth media (fibroblasts) and incubated overnight. […] Afterwards, cell culture media was collected, cell debris were removed by centrifugation the concentration of VEGF in the cell culture supernatants was measured using the human/mouse VEGF immunoassay Quantikine ELISA kit (R&D systems, Minneapolis, Minn., USA) according to the manufacturer's instructions. For the intracellular VEGF detection, total protein concentration was determined by BCA (Pierce Chemical, USA) and VEGF levels determined using the same kit described above.

[2] = tested on: primary fibroblasts, cancer cells, immortalized fibroblasts; assay: intracellular VEGF ELISA in cell lysates; assay type: cell-based, human; settings: 48 h
Experimental: as §1

[3] = tested on: primary fibroblast, immortalised fibroblast, endothelial cells and cancer cells; assay: Proliferation by live cell time-lapse imaging; assay type: cell-based, human; settings: fibroblasts or endothelial cells
Experimental: During a proliferation assay, pictures were taken every 2 hours using a time-lapse microscope. Charts were used to display cell confluency over time.
To examine the effect of USP7 inhibition on proliferation of primary fibroblast, immortalised fibroblast, endothelial cells and cancer cells, live cell time-lapse imaging was used.

[4] = tested on: primary fibroblasts, immortalized fibroblasts, cancer cells; assay: Scratch wound cell invasion assay through Matrigel; assay type: cell-based, human
Experimental: The scratch wound cell invasion assay was used to measure the ability of indicated cells to invade through Matrigel® basement membrane. Pictures were taken every 2 hours over 4 days using a time-lapse microscope and wound closure over time is presented in charts.
96-well ImageLock plates were coated with 0.1 mg/ml growth factor reduced Matrigel® and incubated for 1 h at 37° C. Cells were seeded a density of 10,000-40,000 cells/well in 100 μL/well and incubated overnight. Next day wounds were simultaneously created in all wells using the WoundMaker. After wounding, media was aspirated from each well and cells were washed twice with PBS. For invasion cells were overlayed with 50 μL of the Matrigel® top layer at 3mg/ml and incubated for 30 min at 37° C. […] Cell plates were placed into the IncuCyte live-cell analysis system and each well imaged using 10× objective every 2 hours for the total of 5-days. Images were analysed using IncuCyte scratch wound protocol and results presented as percentage of wound confluence.

HUVEC = assay: Matrigel tube formation assay; assay type: cell-based, human; settings: 6 hours
Experimental: FIG. 28: USP7 inhibition has no direct effect on HUVEC tube formation in vitro. […] The tube formation images were taken after 6 h after tube initiation.
Each well of a pre-chilled 96-well plate was coated with 50 μL of unpolymerized growth factor reduced Matrigel® (9.2 mg/mL) and incubated at 37° C. in 5% CO2 for 2 h. HUVECs were harvested with trypsin, and 1.5×10^4 cells were resuspended in 100 μL complete endothelial cell growth medium. […] After approximately 6 hours of incubation at 37° C. in 5% CO2, images of the center of each were taken at 4× magnification.

[5] = tested on: CT-26 tumour cells in BALB/c mouse; assay: CT-26 syngeneic tumour model with immune checkpoint inhibitors (ADC-159 study); assay type: in vivo
Experimental: FIG. 38: Effect of USP7 inhibition in combination with immune checkpoint inhibitors […] on the tumour microenvironment in vivo. […] Tumour volume of CT-26 xenograft implanted in immuno-competent syngeneic mice treated with vehicle control, ADC-159, anti-PD-L1, anti-CTLA-4 or in combination was measured twice weekly until day 13 post tumour implantation.
FIG. 39: USP7 inhibition leads to increase survival when combined with anti-PD-L1 and anti-CTLA-4 immune checkpoint inhibitors. […] (B) Individual growth curves show improved anti-tumour response when USP7 inhibitor ADC-159 is combined with ICIs. n=10 animals/group.
For the immune checkpoint inhibitor in vivo experiments, BALB/c mouse was injected subcutaneously in the right rear flank with 5×10^5 viable CT-26 tumour cells in 0.1 mL of PBS. ADC-159 (75 mg/kg and 100 mg/kg) was dosed daily while anti-PD-L1 or anti-CTLA4 (10 mg/kg) were dosed every 3 days. Tumour volume (mm^3) was measured with callipers three times a week using the equation: Tumour Volume (TV)=0.5((W)^2×L), where W is the shortest tumour diameter (width) and L is the longest perpendicular diameter (length), in millimetres. Body weights were measured on the same days during the dosing phase. […] Graphing and statistical analysis of tumour volume using one-way ANOVA followed by Dunnett's multiple comparisons test. […]

Ub-MDM2 = Ub-MDM2 MSD (HCT116); assay type: cell-based; settings: Homo sapiens, HCT-116
Hep CLhep (h) = assay type: in vitro ADME, human
Hep CLhep (r) = assay type: in vitro ADME, rat

Row | SMILES | sVEGF protein levels [1] | intracellular VEGF levels ([2]; cancer cells or immortalized fibroblasts) | intracellular VEGF levels ([2]; primary fibroblast lysates) | proliferation [3] | number of invading cells ([4]; cancer cells and immortalized fibroblasts) | invasion through Matrigel basement membrane ([4]; primary fibroblast, compared to vehicle-treated cells) | HUVEC tube formation on Matrigel (HUVEC) | tumour growth inhibition (TGI) ([5]; Day 13) | survival ([5]; Kaplan-Meier, compared to vehicle controls) | pEC50 (Ub-MDM2) | Hep CLhep (h) (Hep CLhep (h)) | Hep CLhep (r) (Hep CLhep (r))
1 | C[C@H](CC(=O)N1CCC(O)(Cn2cnc3c(-c4ccc(CN)cc4)n(C)nc3c2=O)CC1)c1ccccc1 [AD-04, (R)-3-(4-(Aminomethyl)phenyl)-6-((4-hydroxy-1-(3-phenylbutanoyl)piperidin-4-yl)methyl)-2-methyl-2H-pyrazolo[4,3-d]pyrimidin-7(6H)-one] | dose-dependent decrease | not in cancer cells or immortalized fibroblasts | decreases | no effect | did not change | greatly reduced | did not disrupt |  |  |  |  | 
2 | CC1(C(=O)N2CCC(O)(Cn3cnc4c(cc(Cl)n4-c4ccc5c(c4)CCO5)c3=O)CC2)CC1 [ADC-159, 6-Chloro-7-(2,3-dihydrobenzofuran-5-yl)-3-((4-hydroxy-1-(1-methylcyclopropane-1-carbonyl)piperidin-4-yl)methyl)-3,7-dihydro-4H-pyrrolo[2,3-d]pyrimidin-4-One] |  |  |  |  |  |  |  | 23% | modest but significant increase | 7.03 | 9 | 43

From patent US20230088286A1, “USP7 INHIBITOR FOR USE IN THE TREATMENT OF CANCER” (ALMAC DISCOVERY LIMITED, priority 2020, published 2023)
